Patent publication US6924092B1, “Screening method involving MGDG synthase” (Commissariat a L'Energie Atomique, priority 1999, dated 2005)

Columns and labels:
[1] = target: T1, rMGD A (overexpressed spinach MGDG synthase) (Spinacia oleracea, UniProt Q9SM44); test: Galactosylation activity of partially purified recombinant MGDG synthase (rMGD A), measured with micelles and UDP-[14C]gal; type: biochemical; details: for Inhibition of rMGD A activity (in words): overexpressed rMGD A; for activity at 150 µM: 150 μM NEM 10 min, % of control
T1 construct: Two mature forms of MGDG synthase are overexpressed in E. coli; additional initiation methionine (N); made in house; host or cells: E. coli BL21(DE3), plasmid pET-Y 3a; solubilised with CHAPS and partially purified on hydroxyapatite
T1 sequence (Q9SM44 99-522): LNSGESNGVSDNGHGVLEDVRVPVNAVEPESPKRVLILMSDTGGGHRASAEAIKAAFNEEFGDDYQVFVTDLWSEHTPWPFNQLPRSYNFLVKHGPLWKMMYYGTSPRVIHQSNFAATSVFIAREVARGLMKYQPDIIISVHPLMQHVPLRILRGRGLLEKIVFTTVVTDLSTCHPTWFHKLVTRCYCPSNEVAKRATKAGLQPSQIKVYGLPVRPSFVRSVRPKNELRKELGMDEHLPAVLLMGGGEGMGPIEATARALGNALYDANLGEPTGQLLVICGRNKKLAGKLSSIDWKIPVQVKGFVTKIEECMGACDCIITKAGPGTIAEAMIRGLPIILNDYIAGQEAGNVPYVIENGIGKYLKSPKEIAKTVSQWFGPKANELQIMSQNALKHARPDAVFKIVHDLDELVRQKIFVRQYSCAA
Procedure: The activity of the MGDG synthase is measured on various types of sample, depending on the model chosen: plastidial membrane, membrane fractions of E. coli overexpressing a recombinant MGDG synthase (rMGD A, 0.7 μg protein/assay, enzyme extracted beforehand from a plant (see Example 1)).
1.3 mM of phosphatidylglycerol (PG) and 160 μM of diacylglycerol (DAG) are dissolved in chloroform. After evaporating the solvent under argon, 200 μl of incubation medium containing 50 mM of MOPS-NaOH, pH 7.8, 4.5 mM OF CHAPS, 1 mM of DTT, 250 mM of KH2PO4/K2HPO4 and 250 mM of KCl are added and the medium is mixed vigorously so as to resuspend the lipids. 100 μl of fractions containing the MGDG synthase, in the incubation medium, are introduced then the medium is again mixed vigorously and then maintained at 20° C. for 1 h.
The reaction in the incubation mixture is then initiated by adding 1 mM of UDP-[^14C]gal (37 Bq/μmol). After 10 min to 1 h, the reaction is stopped by adding a chloroform/methanol mixture (1:2, v/v), the lipids are extracted in accordance with the method of Bligh et al (Can. J. Biochem. Physiol, 1959, 37, 911-917) and the radioactivity of the labeled galactolipids is determined by liquid scintillation counting as described in Covès et al. (FEBS lett., 1986, 208, 401-406). The activity is expressed in μmol of galactose incorporated/h/mg of protein.
The fractions of partially purified rMGD A are desalified by chromatography on a Biogel P6-DG (Bio-Rad) column (Pharmacia, C10/40 column, 30 ml of gel) equilibrated in DTT. Aliquots (200 μl) of the fractions are incubated for 40 minutes at 25° C. with gentle stirring, in the presence or absence of DTT. The galactosylation activity is then measured as specified above (see Example 3).
In order to obtain the results summarized in Table II, the rMGD A is desalified by chromatography on a Biogel P6-DG (Bio-Rad) column (Pharmacia, C10/40, column, 30 ml of gel) equilibrated in DTT. Aliquots (200 μl) of the fractions are incubated for 30 minutes at 25° C. with gentle stirring, followed by a 10 min incubation in the presence or absence of 150 μM NEM and then a 10 min incubation in the presence or absence of DTT. The galactosilyation activity is then measured as specified above (see Example 3).

[2] = target: T2, MGDG synthase partially purified from spinach leaf chloroplasts (Spinacia oleracea, UniProt Q9SM44); details: chloroplast envelope enzyme, Maréchal et al., J. Biol. Chem., 1995; cited from earlier work
T2 construct: the MGDG synthase partially purified from spinach leaf chloroplasts; host or cells: spinach leaf chloroplasts (envelope membranes)
T2 sequence (Q9SM44 99-522): T1 sequence (Q9SM44 99-522)

Effect of DTT on rMGD A activity after desalification (in words) ([1]; DTT removed on Biogel P6-DG column, DTT added back)	Activity (%) ([1]; desalified hydroxyapatite fraction + 1 mM DTT, 40 min at 25° C., percentage of the control (not desalified) activity)	Activity (%) ([1]; desalified hydroxyapatite fraction + 10 mM DTT, 40 min at 25° C., percentage of the control (not desalified) activity)	activity at 10000 µM ([1]; desalified rMGD A, pre-incubation 30 min without addition, no NEM, then 10 mM DTT 10 min, % of control (50 min in 10 mM DTT)) [%]	Activity (%) ([1]; with orthophenanthroline, no other additions, initial activity (time 0) = 100)	Activity (%) ([1]; with orthophenanthroline, other addition PG, initial activity (time 0) = 100)	Activity (%) ([1]; with orthophenanthroline, other addition UDP-gal, initial activity (time 0) = 100)	Activity (%) ([1]; with orthophenanthroline, other additions PG + DAG, initial activity (time 0) = 100)	Structure (SMILES)	Protection of enzyme activity against oxidation (in words) [2]	Inhibition of rMGD A activity (in words) [1]	activity at 150 µM ([1]; pre-incubation 30 min with DTT, no further DTT incubation, reaction + PG + DAG + UDP-gal) [%]	activity at 150 µM ([1]; pre-incubation 30 min with PG + DAG, then 10 mM DTT 10 min, reaction + UDP-gal) [%]	activity at 150 µM ([1]; pre-incubation 30 min with PG, then 10 mM DTT 10 min, reaction + DAG + UDP-gal) [%]	activity at 150 µM ([1]; pre-incubation 30 min with UDP-gal, then 10 mM DTT 10 min, reaction + PG + DAG) [%]	activity at 150 µM ([1]; pre-incubation 30 min without addition, then 10 mM DTT 10 min, reaction + PG + DAG + UDP-gal) [%]	Inhibition of the enzyme (in words) [2]
maintains its activity	75	65	101	–	–	–	–	O[C@H](CS)[C@H](O)CS (racemic) [DTT, dithiothreitol]	can protect the activity of the enzyme against oxidation	–	–	–	–	–	–	–
–	–	–	–	–	–	–	–	CCN1C(=O)C=CC1=O [NEM, N-ethylmaleimide]	–	very sensitive	108	60	56	32	35	powerful inhibitors
–	–	–	–	43	27	17	92	c1cnc2c(c1)ccc1cccnc12 [orthophenanthroline]	–	inhibited	–	–	–	–	–	powerful inhibitors
